The values below are quoted from earlier work in US20250288650A1, “Therapeutic Regimens and Methods for Reducing Body Weight and/or Serum Lipids using a GLP-1R and GCGR Agonist” (Spitfire Pharma LLC, priority 2024, published 2025).

The conditions of data set [1]: over 26 weeks of administration.
The conditions of data set [2]: 6 weeks.

`CCCCCCCCCCCCCCCC(=O)N[C@@H](CCC(=O)NCCCC[C@H](NC(=O)[C@H](CC(=O)O)NC(=O)[C@H](CO)NC(=O)[C@@H](NC(=O)[C@H](Cc1ccccc1)NC(=O)[C@@H](NC(=O)CNC(=O)[C@H](CCC(N)=O)NC(=O)[C@H](CO)NC(=O)[C@@H](N)Cc1c[nH]cn1)[C@@H](C)O)[C@@H](C)O)C(=O)N[C@@H](CO)C(=O)N[C@@H](CCC(=O)O)C(=O)N[C@@H](Cc1ccc(O)cc1)C(=O)N[C@@H](CC(C)C)C(=O)N[C@@H](CC(=O)O)C(=O)N[C@@H](CO)C(=O)N[C@@H](CCC(=O)O)C(=O)N[C@@H](CCCNC(=N)N)C(=O)N[C@@H](C)C(=O)N[C@@H](CCCNC(=N)N)C(=O)N[C@@H](CC(=O)O)C(=O)N[C@@H](Cc1ccccc1)C(=O)N[C@H](C(=O)N[C@@H](C)C(=O)N[C@@H](Cc1c[nH]c2ccccc12)C(=O)N[C@@H](CC(C)C)C(=O)N[C@@H](CCC(=O)O)C(=O)N[C@@H](C)C(=O)NCC(=O)NCC(=O)O)C(C)C)C(=O)O` [cotadutide]: the “degree of weight loss” value in data set [1] is listed as 5.4%. Moreover, the “reduction in liver fat content” value in data set [2] is 39%.
